Data from US20220331448A1, “COMPOSITIONS AND METHODS FOR TREATING SUCCINIC SEMIALDEHYDE DEHYDROGENASE DEFICIENCY (SSADHD)” (Washington State University, priority 2018, published 2022).
Where two headings read alike, the source gives them in different places.

Assays:
[1] = target: T1, GABA-transaminase (Mus musculus, UniProt P61922); conditions: daily doses ˜10 mg/kg or osmotic minipumps; cited from earlier work
T1 construct: from tissue; host or cells: living mice (CNS), endogenous enzyme

[2] = tested on: aldh5a1−/− mice; conditions: cited from earlier work
[3] = tested on: aldh5a1+/+ and aldh5a1−/− mice; experiment: Electrocorticography: seizures under Torin 2; assay type: in vivo; conditions: 10 mg/kg, mean ± SEM
Method: FIG. 7—Representative electrocorticographic recordings of seizure types in an aldh5a1−/− mouse.
Studies with Torin 2 administration in aldh5a1−/− mice, beginning at DOL10 under an escalating dose paradigm, were evaluated for seizures using a three channel recording electrocorticography (Pinnacle Technology; https://www.pinnaclet.com/eeg-emg-systerns.html) and electrode-implanted aldh5a1+/+ and aldh5a1−/− mice. EEG was scored offline using semi-automated detection (Neuroscore, Data Sciences International, St. Paul, Minn.) for seizure frequency (total number of seizures), and total ictal time (cumulative time spent in seizures); where a seizure event was defined as a run of continuous spikes ≥3s in duration on the EEG. Automatically detected events were verified by visual inspection (Dhamne et al. Mol Autism 8:26 (2017)). Our prediction was that Torin 2 administration would lead to improvement in both parameters. […] If these receptors remain immature, consistent with our hypothesis for bumetanide (see above), then their subsequent up-regulation could conceivably exacerbate depolarization, and thus enhance cumulative epileptic outburst duration, as Applicants observed (Table 2). […]

[4] = tested on: aldh5a1−/− mouse brain; conditions: in vivo; cited from earlier work
[5] = tested on: aldh5a1−/− mouse brain; experiment: Brain gene expression (GABA(A) receptor subunits, AMPK/mTOR pathway) under Torin drugs; assay type: in vivo

T1 sequence (P61922 29-500): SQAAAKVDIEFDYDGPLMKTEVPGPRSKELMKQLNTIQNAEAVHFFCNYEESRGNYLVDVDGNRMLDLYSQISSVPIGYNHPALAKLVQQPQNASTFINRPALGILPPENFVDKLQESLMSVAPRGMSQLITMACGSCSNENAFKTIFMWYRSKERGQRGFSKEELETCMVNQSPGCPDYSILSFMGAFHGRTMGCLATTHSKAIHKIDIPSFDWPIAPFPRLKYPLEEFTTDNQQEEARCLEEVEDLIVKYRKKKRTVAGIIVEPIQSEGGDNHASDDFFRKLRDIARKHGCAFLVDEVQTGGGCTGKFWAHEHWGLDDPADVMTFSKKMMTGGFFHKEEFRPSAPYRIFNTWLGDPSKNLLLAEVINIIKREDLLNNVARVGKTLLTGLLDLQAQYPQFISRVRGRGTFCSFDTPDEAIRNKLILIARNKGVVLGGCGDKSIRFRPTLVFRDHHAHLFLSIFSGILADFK

| SMILES | GABA in the CNS [1] | rescue from premature lethality / lifespan extension [2] | Seizure Frequency [3] | Total Ictal Time [3] | expression of GABA(A)ergic receptor subunits [4] | expression of Stk11 (AMPK's activator) ([5]; aldh5a1−/− mice) | lower expression of Tsc1 and 2 ([5]; aldh5a1−/− mouse brain) | rescue from premature lethality / lifespan extension ([2]; listed as Torin2) | rescue from premature lethality / lifespan extension ([2]; listed as torin 2) |
| --- | --- | --- | --- | --- | --- | --- | --- | --- | --- |
| C=CC(N)CCC(=O)O (stereo not shown) [vigabatrin] | significantly elevated | rescue | – | – | – | – | – | – | – |
| Nc1ccc(-c2ccc3ncc4ccc(=O)n(-c5cccc(C(F)(F)F)c5)c4c3c2)cn1 [Torin 2] | – | rescue | 0.50 ± 0.59 avg/hr | 2.1 ± 1.2 seconds (avg/hr) | corrected (upregulated) | normalized | normalized | striking | significantly prolong the lifespan |
